{"source": "patent US20050197634A1", "about": "“Methods for coating and impregnating medical devices with antiseptic compositions” (Board of Regents, The University of Texas System, priority 2004, published 2005)", "key": {"[1]": {"system": "Pseudomonas aeruginosa", "experiment": "Zones of inhibition of impregnated device segments, modified Kirby-Bauer technique", "assay_type": "cell-based", "details": "gentian violet after impregnating surfaces of various polymers incl. polyvinylchloride", "experimental": "(§1) In Vitro antimicrobial activity. The antimicrobial activity of impregnated catheters was evaluated in duplicate by a modified Kirby-Bauer technique. BBL Mueller Hinton II agar plates (obtained from Fisher Scientific) were inoculated with 0.5 McFarland of the appropriate microorganism (hospital isolates from the MD Anderson Cancer Center). Then 10 mm segments of impregnated devices were embedded in the inoculated plates and placed in an incubator at about 37° C. for at least 18 hours. Zones of inhibition were measured perpendicular to the long axis of the device.\n(§2) Anti-microbial activity of GND-ETT and GND-UC segments was assessed by modified Kirby-Bauer method. Segments were embedded in Mueller Hinton agar plates inoculated with one of the following organisms: Candida albicans (CA), vancomycin resistant enterococci (VRE), E. coli (EC), Candida parapsilosis(CP), methicillin resistant S. aureus (MRSA) or Pseudomonas aeruginosa (PS). Plates were incubated at 37° C. Zones of inhibition (ZOI) created by impregnated segments were measured in mm.\n(§3) GND-ETT and GND-UC were immersed in sterile pooled bronchoalveolar lavage (BAL) or urine, respectively, and incubated at 37° C. BAL and urine were changed weekly and ZOI were determined in duplicate at weekly intervals."}, "[2]": {"system": "S. epidermis", "details": "in vitro study, gentian violet alone; cited from earlier work"}, "[3]": {"system": "various nosocomial pathogens", "experiment": "In vitro zones of inhibition of coated or impregnated catheter devices and sutures", "assay_type": "cell-based", "details": "coating or impregnating catheter devices and sutures", "experimental": "as §1"}, "[4]": {"system": "Candida parapsilosis (C. Parap.1-100-0022)", "experiment": "Zones of inhibition of impregnated device segments, modified Kirby-Bauer technique", "assay_type": "cell-based", "details": "in words", "experimental": "as §1, §2, §3"}, "[5]": {"system": "Methicillin resistant Staph. aureus (MRSA2066)", "experiment": "Zones of inhibition of impregnated device segments, modified Kirby-Bauer technique", "assay_type": "cell-based", "details": "in words", "experimental": "as §1, §2, §3"}, "[6]": {"system": "Alcaligenes faecalis", "experiment": "Zones of inhibition of impregnated PVC tubes", "assay_type": "cell-based", "details": "in words", "experimental": "as §1"}, "[7]": {"details": "sutures, compared with Genlenol"}}}
{"smiles": "CN(C)c1ccc(C(=C2C=CC(=[N+](C)C)C=C2)c2ccc(N(C)C)cc2)cc1", "note": "[GV, Gentian violet]", "values": [{"measurement": "activity against Pseudomonas aeruginosa, agent on its own", "setting": "[1]", "value": "no activity"}, {"measurement": "colonization of S. epidermis on impregnated CSF silicone shunt surfaces", "setting": "[2]", "value": "prevent the colonization"}]}
{"smiles": "CC(C)(C)CC(C)(C)c1ccc([O-])c(Cc2ccc(Cl)cc2Cl)c1.CN(C)c1ccc(C(=C2C=CC(=[N+](C)C)C=C2)c2ccc(N(C)C)cc2)cc1", "note": "[Genfoctol]", "values": [{"measurement": "in vitro zones of inhibition against various nosocomial pathogens", "setting": "[3]", "value": "large in vitro zones of inhibition"}, {"measurement": "zones against C. parapsilosis", "setting": "[4]; [7]", "value": "much larger zones"}, {"measurement": "zones against MRSA", "setting": "[5]; [7]", "value": "much larger zones"}]}
{"smiles": "CN(C)c1ccc(C(=C2C=CC(=[N+](C)C)C=C2)c2ccc(N(C)C)cc2)cc1.Cc1cc([O-])cc(C)c1Cl", "note": "[Genlenol]", "values": [{"measurement": "in vitro zones of inhibition against various nosocomial pathogens", "setting": "[3]", "value": "large in vitro zones of inhibition"}, {"measurement": "zones of inhibition against Alcaligenes faecalis", "setting": "[6]", "value": "to a large extent"}, {"measurement": "zones of inhibition against C. parapsilosis", "setting": "[4]; PVC tubes and PVC catheters", "value": "Improvements"}, {"measurement": "zone against C. parapsilosis", "setting": "[4]; silicone catheter", "value": "large zone"}, {"measurement": "zone against MRSA", "setting": "[5]; silicone catheter", "value": "increased the zone against MRSA considerably"}]}
{"smiles": "CN(C)c1ccc(C(=C2C=CC(=[N+](C)C)C=C2)c2ccc(N(C)C)cc2)cc1.[O-]c1cc(Cl)ccc1Oc1ccc(Cl)cc1Cl", "note": "[Genlosan]", "values": [{"measurement": "in vitro zones of inhibition against various nosocomial pathogens", "setting": "[3]", "value": "large in vitro zones of inhibition"}]}
{"smiles": "Cc1cc(O)cc(C)c1Cl", "note": "[PCMX, p-chloro-m-xylenol; 4-chloro-3,5-dimethylxylenol, reference compound]", "values": [{"measurement": "in vitro zones of inhibition against various nosocomial pathogens", "setting": "[3]", "value": "Neither the neutral form of PCMX nor its sodium salt could produce in vitro zones of inhibition"}]}
{"smiles": "[H]/N=C(\\N/C(=N/[H])NCCCCCCNC(=N)NC(=N)Nc1ccc(Cl)cc1)Nc1ccc(Cl)cc1", "note": "[chlorhexidine]", "values": [{"measurement": "activity against Pseudomonas aeruginosa, agent on its own", "setting": "[1]", "value": "not highly active"}]}
